Data taken from publication PMC10077450 (ACS Omega, 2023).
“Also recorded” adds a separate entry of the source. Marks after values point to notes of the source that are not given here.

Legend:
[1] = molecular target: butyryl cholinesterase (BChE) (Homo sapiens, UniProt P06276); test: butyryl cholinesterase inhibition assay; assay type: biochemical; conditions: for inhibition at 500 µM: read-out: BChE inhibition (%) at 0.5 mM; for activity against BChE enzyme (in words): compared with eserine
α-glucosidase = α-glucosidase (Saccharomyces cerevisiae, UniProt P53341); conditions: for activity against α-glucosidase enzyme (in words): compared with acarbose
Chain of α-glucosidase (P53341 whole entry): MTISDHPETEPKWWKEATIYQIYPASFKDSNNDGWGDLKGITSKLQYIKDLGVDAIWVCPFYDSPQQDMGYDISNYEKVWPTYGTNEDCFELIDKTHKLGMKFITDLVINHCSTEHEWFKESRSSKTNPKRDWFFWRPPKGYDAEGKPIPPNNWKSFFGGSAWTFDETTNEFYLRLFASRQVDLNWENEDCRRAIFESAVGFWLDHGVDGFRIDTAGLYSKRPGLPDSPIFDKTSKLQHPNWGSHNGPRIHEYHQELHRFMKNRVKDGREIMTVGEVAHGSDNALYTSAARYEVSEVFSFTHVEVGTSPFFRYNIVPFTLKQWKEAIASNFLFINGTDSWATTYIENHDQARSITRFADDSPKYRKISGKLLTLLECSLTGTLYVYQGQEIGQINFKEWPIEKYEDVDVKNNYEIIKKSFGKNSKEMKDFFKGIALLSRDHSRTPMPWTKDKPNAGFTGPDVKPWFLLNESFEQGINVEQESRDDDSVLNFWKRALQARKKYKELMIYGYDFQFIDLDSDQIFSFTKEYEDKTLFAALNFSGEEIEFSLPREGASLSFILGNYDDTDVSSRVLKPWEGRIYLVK

Chain of butyryl cholinesterase (BChE) (P06276 29-602, species assumed): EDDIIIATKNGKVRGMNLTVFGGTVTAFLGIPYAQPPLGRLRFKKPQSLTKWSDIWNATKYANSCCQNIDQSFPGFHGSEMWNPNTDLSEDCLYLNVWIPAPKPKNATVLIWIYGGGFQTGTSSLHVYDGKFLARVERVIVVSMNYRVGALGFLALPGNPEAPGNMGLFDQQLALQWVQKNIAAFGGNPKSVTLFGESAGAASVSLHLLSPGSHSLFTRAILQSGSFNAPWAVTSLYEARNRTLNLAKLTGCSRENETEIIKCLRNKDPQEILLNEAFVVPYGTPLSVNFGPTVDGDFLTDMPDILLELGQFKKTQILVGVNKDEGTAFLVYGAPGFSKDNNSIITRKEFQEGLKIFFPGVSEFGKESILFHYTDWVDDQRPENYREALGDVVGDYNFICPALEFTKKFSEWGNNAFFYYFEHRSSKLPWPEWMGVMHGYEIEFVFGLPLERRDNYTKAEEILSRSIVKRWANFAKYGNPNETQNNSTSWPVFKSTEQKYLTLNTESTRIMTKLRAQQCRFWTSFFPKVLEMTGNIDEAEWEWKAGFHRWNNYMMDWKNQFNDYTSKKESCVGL

Row | Compound | inhibition at 500 µM [1] | IC50 [1] | activity against BChE enzyme (in words) [1] | activity against α-glucosidase enzyme (in words) (α-glucosidase) | α-glucosidase inhibition (%) at 0.5 mM (α-glucosidase; 0.5 mM, mean ± SEM, triplicate)
1 | COc1ccccc1NC(=O)CSc1nnc(C2CCCN(S(=O)(=O)c3ccccc3)C2)o1 (stereo not shown) [7q, N-(2-Methoxyphenyl)-2-{5-[1-(phenylsulfonyl)piperidin-3-yl]-1,3,4-oxadiazol-2-ylthio}acetamide] | 36.32 ± 0.16% | – | – | – | –
2 | Cc1ccc(NC(=O)CSc2nnc(C3CCCN(S(=O)(=O)c4ccccc4)C3)o2)cc1 (stereo not shown) [7g, 2-{5-[1-(Phenylsulfonyl)piperidin-3-yl]-1,3,4-oxadiazol-2-ylthio}-N-p-tolylacetamide] | 46.75 ± 0.18% | – | – | – | –
3 | O=C(CSc1nnc(C2CCCN(S(=O)(=O)c3ccccc3)C2)o1)NCCc1ccccc1 (stereo not shown) [7j, N-Phenethyl-2-{5-[1-(phenylsulfonyl)piperidin-3-yl]-1,3,4-oxadiazol-2-ylthio}acetamide] | 97.93 ± 0.38% | 12.15 ± 0.09 µM | highest inhibition potential; also recorded: most active | – | –
4 | COC(=O)c1ccccc1NC(=O)CSc1nnc(C2CCCN(S(=O)(=O)c3ccccc3)C2)o1 (stereo not shown) [7h, Methyl 2-(2-(5-(1-(Phenylsulfonyl)piperidin-3-yl)-1,3,4-oxadiazol-2-ylthio)acetamido)benzoate] | 35.52 ± 0.23% | – | – | – | –
5 | CCOc1ccc(NC(=O)CSc2nnc(C3CCCN(S(=O)(=O)c4ccccc4)C3)o2)cc1 (stereo not shown) [7m, N-(4-Ethoxyphenyl)-2-{5-[1-(phenylsulfonyl)piperidin-3-yl]-1,3,4-oxadiazol-2-ylthio}acetamide] | 72.41 ± 0.17% | 328.1 ± 0.18 µM | least active; also recorded: BChE inhibitors | – | –
6 | COc1ccc(Cl)cc1NC(=O)CSc1nnc(C2CCCN(S(=O)(=O)c3ccccc3)C2)o1 (stereo not shown) [7i, N-(5-Chloro-2-methoxyphenyl)-2-{5-[1-(phenylsulfonyl)piperidin-3-yl]-1,3,4-oxadiazol-2-ylthio}acetamide] | 38.81 ± 0.17% | – | – | second most active | –
7 | CCc1ccccc1NC(=O)CSc1nnc(C2CCCN(S(=O)(=O)c3ccccc3)C2)o1 (stereo not shown) [7k, N-(2-Ethylphenyl)-2-{5-[1-(phenylsulfonyl)piperidin-3-yl]-1,3,4-oxadiazol-2-ylthio}acetamide] | 44.24 ± 0.32% | – | – | least activity | –
8 | Cc1cccc(C)c1NC(=O)CSc1nnc(C2CCCN(S(=O)(=O)c3ccccc3)C2)o1 (stereo not shown) [7d, N-(2,6-Dimethylphenyl)-2-{5-[1-(phenylsulfonyl)piperidin-3-yl]-1,3,4-oxadiazol-2-ylthio}acetamide] | 48.51 ± 0.15% | – | – | least activity | –
9 | Cc1ccc(NC(=O)CSc2nnc(C3CCCN(S(=O)(=O)c4ccccc4)C3)o2)c(C)c1 (stereo not shown) [7b, N-(2,4-Dimethylphenyl)-2-{5-[1-(phenylsulfonyl)piperidin-3-yl]-1,3,4-oxadiazol-2-ylthio}acetamide] | 76.51 ± 0.44% | 283.3 ± 0.17 µM | least active; also recorded: BChE inhibitors | – | –
10 | Cc1cccc([N+](=O)[O-])c1NC(=O)CSc1nnc(C2CCCN(S(=O)(=O)c3ccccc3)C2)o1 (stereo not shown) [7s, N-(2-Methyl-6-nitrophenyl)-2-{5-[1-(phenylsulfonyl)piperidin-3-yl]-1,3,4-oxadiazol-2-ylthio}acetamide] | 67.19 ± 0.39% | 123.3 ± 0.15 µM | moderately high inhibition potential | – | –
11 | O=C(CSc1nnc(C2CCCN(S(=O)(=O)c3ccccc3)C2)o1)NC1CCCCC1 (stereo not shown) [7p, N-Cyclohexyl-2-{5-[1-(phenylsulfonyl)piperidin-3-yl]-1,3,4-oxadiazol-2-ylthio}acetamide] | 26.5 ± 0.39% | – | – | least activity | –
12 | O=C(CSc1nnc(C2CCCN(S(=O)(=O)c3ccccc3)C2)o1)NCc1ccccc1 (stereo not shown) [7r, N-Benzyl-2-{5-[1-(phenylsulfonyl)piperidin-3-yl]-1,3,4-oxadiazol-2-ylthio}acetamide] | 37.7 ± 0.48% | – | – | least activity | –
13 | CCOc1ccccc1NC(=O)CSc1nnc(C2CCCN(S(=O)(=O)c3ccccc3)C2)o1 (stereo not shown) [7n, N-(2-Ethoxyphenyl)-2-{5-[1-(phenylsulfonyl)piperidin-3-yl]-1,3,4-oxadiazol-2-ylthio}acetamide] | 43.72 ± 0.15% | – | – | – | –
14 | Cc1cc(C)cc(NC(=O)CSc2nnc(C3CCCN(S(=O)(=O)c4ccccc4)C3)o2)c1 (stereo not shown) [7e, N-(3,5-Dimethylphenyl)-2-{5-[1-(phenylsulfonyl)piperidin-3-yl]-1,3,4-oxadiazol-2-ylthio}acetamide] | 66.82 ± 0.32% | 375.4 ± 0.12 µM | least active; also recorded: BChE inhibitors | most active; also recorded: comparable activity to that of reference | –
15 | Cc1ccc(C)c(NC(=O)CSc2nnc(C3CCCN(S(=O)(=O)c4ccccc4)C3)o2)c1 (stereo not shown) [7c, N-(2,5-Dimethylphenyl)-2-{5-[1-(phenylsulfonyl)piperidin-3-yl]-1,3,4-oxadiazol-2-ylthio}acetamide] | 40.76 ± 0.27% | – | – | – | –
16 | C[C@H]1O[C@H](O[C@H]2[C@H](O)[C@@H](O)[C@@H](O[C@H]3[C@H](O)[C@@H](O)C(O)O[C@@H]3CO)O[C@@H]2CO)[C@H](O)[C@@H](O)[C@@H]1N[C@H]1C=C(CO)[C@@H](O)[C@H](O)[C@H]1O (stereo partly shown) [acarbose, reference compound] | – | – | – | – | 92.23±0.14^a %
17 | CCc1ccc(NC(=O)CSc2nnc(C3CCCN(S(=O)(=O)c4ccccc4)C3)o2)cc1 (stereo not shown) [7l, N-(4-Ethylphenyl)-2-{5-[1-(phenylsulfonyl)piperidin-3-yl]-1,3,4-oxadiazol-2-ylthio}acetamide] | 93.71 ± 0.28% | 274.6 ± 0.13 µM | least active; also recorded: BChE inhibitors | – | –
18 | Cc1ccccc1NC(=O)CSc1nnc(C2CCCN(S(=O)(=O)c3ccccc3)C2)o1 (stereo not shown) [7f, 2-{5-[1-(Phenylsulfonyl)piperidin-3-yl]-1,3,4-oxadiazol-2-ylthio}-N-o-tolylacetamide] | 47.23 ± 0.14% | – | – | – | –
19 | CCc1cccc(C)c1NC(=O)CSc1nnc(C2CCCN(S(=O)(=O)c3ccccc3)C2)o1 (stereo not shown) [7o, N-(2-Ethyl-6-methylphenyl)-2-{5-[1-(phenylsulfonyl)piperidin-3-yl]-1,3,4-oxadiazol-2-ylthio}acetamide] | 38.31 ± 0.29% | – | – | – | –
20 | Cc1cccc(NC(=O)CSc2nnc(C3CCCN(S(=O)(=O)c4ccccc4)C3)o2)c1C (stereo not shown) [7a, N-(2,3-Dimethylphenyl)-2-{5-[1-(phenylsulfonyl)piperidin-3-yl]-1,3,4-oxadiazol-2-ylthio}acetamide] | 75.32 ± 0.35% | 284.5 ± 0.13 µM | least active; also recorded: BChE inhibitors | – | –
